Patent US4101552A, “Novel lysergic acid amides and process for preparing same” (Richter Gedeon Vegyeszeti Gyar Rt., priority 1975, dated 1978)

How the values were obtained:
[1] = test system: blood pressure of cats; test: Antihypertensive effect: blood pressure of anaesthetized cats; format: in vivo, cat
Description: Antihypertensive effect
Method: the blood pressure of cats anaesthetized with
intraperitoneally administered 30 mg/kg of pento-
barbital was measured in the left femoral artery
by means of the Statham P 23 db manometer and re-
corded on Hellige polygraph. The compounds were
administered into the right femoral vein.
Number of animals: 2 to 5 per dose.

[2] = test system: reserpine hypothermia; test: Antidepressant test: antagonization of reserpine hypothermia; format: in vivo; settings: 30 mg/kg, intraperitoneally
Description: Antidepressant effect (Δt, ° C) and acute toxicity
Antidepressant test: antagonization of reserpine hypothermia
Dose: 30 mg/kg, intraperitoneally
Δt, ° C: change in body temperature compared to that of
Description of the method: ASKEW, B.M., Life Sci. 10, 725

[3] = test system: hypertension produced by stimulation of the baroreceptors and the central vagus stump; test: Inhibition of hypertension produced by stimulation of the baroreceptors and the central vagus stump; settings: in vivo
Description: (§1) It is characteristic of one of the compounds of the present invention and having a hypotensive action that when administered in intravenous doses of 0.1 to 0.5 mg/kg to cats and dogs in pentothal anaesthesia it provokes a permanent decrease of 20 to 60 mmHg in blood pressure (Table 3). […] It might therefore be assumed that the hypotensive effect of the compound according to the invention is the result of its inhibiting effect on the sympathetic cerebral centres. These properties are the most characteristic of the dihydro-lysergic-acid-(3'-/pyrrolid-2"-on-1"-yl/-propyl)-amide bimaleate (Example 1).

[4] = test system: catecholamine content of the organs; test: Catecholamine content of the organs; settings: in vivo
[5] = test system: alpha- or beta-sympatholytic, ganglion-blocking or adrenergic neuron-blocking action; test: Sympatholytic, ganglion-blocking and adrenergic neuron-blocking action; settings: in vivo
Description: as §1

[6] = test system: renal circulation, cerebral blood-vessels, blood-vessels of other organs; test: Effect on renal circulation and blood-vessels of organs; settings: in vivo
Description: as §1

[7] = test system: acute hypertension produced by the infusion of angiotensin; test: Inhibition of acute hypertension produced by infusion of angiotensin; settings: in vivo
[8] = test system: serotonin oedema; test: Antiserotonin effect in vivo: rat-sole oedema (serotonin oedema blocking)
[9] = test system: isolated rat uterus; test: Antiserotonin effect in vitro on isolated rat uterus; settings: read-out: In vitro ED50 (antiserotonin effect)
Text: It is characteristic of the compound that its effect is well measurable even after oral administration, indicating its ready peroral absorption.
In vitro: on isolated rat uterus
Description of the method; GADDUM, J. H. and HAMMED, L. A.: […]

[10] = Acute toxicity: LD50 on mice after 24 hours; settings: mouse, in vivo
Description: Acute toxicity: LD50 on mice after 24 hours.
Description of the method: […], J.T.jr. and
WILCOXON, F.J., Pharmacol. exp.

[11] = po, rat-sole oedema, peroral, serotonin creatinine sulphate 5 μg per sole in 0.1 ml
[12] = sc, rat-sole oedema, subcutane, serotonin creatinine sulphate 5 μg per sole in 0.1 ml

Row | Structure (SMILES) | Antidepressant effect, Δt (change in body temperature compared to that of the control) [2] | ED50 [8, 11] | IC50 [9] | ED50 [8, 12] | further results
1 | CN1C[C@H](C(=O)N[C@]2(C)O[C@@]3(O)[C@@H]4CCCN4C(=O)[C@H](Cc4ccccc4)N3C2=O)C[C@@H]2c3cccc4[nH]cc(c34)C[C@H]21 [Dihydroergotamine, reference compound] |  |  |  |  | Decrease in blood pressure ([1]; 0.2 mg/kg i.v.): -25 mmHg; Decrease in blood pressure, duration ([1]; 0.2 mg/kg i.v.): 0.5 h
2 | CN1C[C@H](C(=O)Nc2nccs2)C=C2c3cccc4[nH]cc(c34)C[C@H]21 [Example 7, Lysergic-acid-(thiazol-2'-yl)-amide bimaleate] | 8.0 °C |  |  |  | 
3 | CN1C[C@H](C(=O)NCCCN2CCCC2=O)C[C@@H]2c3cccc4[nH]cc(c34)C[C@H]21 [Example 1, 9,10-Dihydrolysergic-acid-(3'-/pyrrolid-2"-on-1"-yl/-propyl)-amide bimaleate] |  |  |  |  | inhibition of hypertension produced by stimulation of the baroreceptors and the central vagus stump [3]: inhibits hypertension produced by the stimulation of the baroreceptors and the central vagus stump; catecholamine content of the organs [4]: does not alter the catecholamine content of the organs; alpha- or beta-sympatholytic, ganglion-blocking or adrenergic neuron-blocking action [5]: no alpha- or beta-sympatholytic, ganglion-blocking or adrenergic neuron-blocking action; effect on cerebral blood-vessels and blood-vessels of other organs [6]: does not cause a constriction of the cerebral blood-vessels or a substantial change in the blood-vessels of other organs; renal circulation [6]: tends to improve renal circulation; inhibition of acute hypertension produced by infusion of angiotensin [7]: inhibits acute hypertension produced by the infusion of angiotensin
4 | CC[C@@H](CO)NC(=O)[C@@H]1C=C2c3cccc4c3c(cn4C)C[C@H]2N(C)C1 (racemic) [Deseryl, N-[1-(hydroxymethyl)propyl]-1-methyl-d-/+/-lysergamide, reference compound] |  | 0.64 mg/kg |  |  | Serotonin oedema blocking effect ED50 ([8]; rat-sole oedema, subcutane, serotonin creatinine sulphate 5 μg per sole in 0.1 ml): 0/026
5 | CN1C[C@H](C(=O)NC2=NCCS2)C[C@@H]2c3cccc4c3c(cn4C)C[C@H]21 [Example 4, 1-Methyl-9,10-dihydrolysergic-acid-(2'-thiazolin-2'-yl)-amide bimaleate] | 4.1 °C | 0.12 mg/kg | 0.05 ng/mL | 0.022 mg/kg | LD50 at 24 h ([10]; ip, intraperitoneally): 330 mg/kg; LD50 at 24 h ([10]; po, orally): 315 mg/kg; peroral efficacy (in words) ([8]; peroral): particularly favourable peroral efficacy; peroral efficacy relative to Deseryl ([8]; peroral, surpassing the efficacy of Deseryl): about 3.5 times
6 | CN1C[C@H](C(=O)NCCCN2CCCC2=O)C[C@@H]2c3cccc4c3c(cn4C)C[C@H]21 [Example 3, 1-Methyl-9,10-dihydrolysergic-acid(3'-/pyrrolid-2"-on-1"-yl/propyl)-amide bimaleate] |  | 1.5 mg/kg | 5 ng/mL | 0.3 mg/kg | Decrease in blood pressure ([1]; 0.5 mg/kg i.v.): -30 mmHg; Decrease in blood pressure, duration ([1]; 0.5 mg/kg i.v.): 2.0 h
7 | CN1C[C@H](C(=O)NC2=NCCS2)C[C@@H]2c3cccc4[nH]cc(c34)C[C@H]21 [Example 5, 9,10-Dihydrolysergic-acid-(thiazolin-2'-yl)-amide bimaleate] | 3.6 °C | 3 mg/kg | 500 ng/mL | 0.3 mg/kg | 
8 | Cc1cc(O)ccc1NC(=O)[C@@H]1C[C@@H]2c3cccc4c3c(cn4C)C[C@H]2N(C)C1 [Example 14, 1-Methyl-9,10-dihydrolysergic-acid-(4'-m-cresyl)-amide bimaleate] | 3.4 °C | 3 mg/kg | 0.5 ng/mL | 0.3 mg/kg | 
9 | Cc1ccc(NC(=O)[C@@H]2C=C3c4cccc5[nH]cc(c45)C[C@H]3N(C)C2)c(F)c1 [Example 12, Lysergic-acid-(2'-fluoro-4'-methyl-phenyl)-amide bimaleate] | 6.9 °C |  |  |  | LD50 at 24 h ([10]; ip, intraperitoneally): 30 mg/kg
10 | CN1C[C@H](C(=O)NCCCN2CCCC2=O)C=C2c3cccc4[nH]cc(c34)C[C@H]21 [Example 2, Lysergic-acid-(3'-/pyrrolid-2"-on-1"-yl/-propyl)-amide bimaleate] | 3.5 °C |  |  |  | Decrease in blood pressure ([1]; 0.5 mg/kg i.v.): -50 mmHg; Decrease in blood pressure, duration ([1]; 0.5 mg/kg i.v.): 1.5 h
11 | CN1C[C@H](C(=O)Nc2ccnn2-c2ccccc2)C=C2c3cccc4[nH]cc(c34)C[C@H]21 [Example 11, Lysergic-acid-(1'-phenyl-pyrazol-5'-yl)-amide bimaleate] | 2.9 °C |  |  |  | 
12 | CSc1cccc(NC(=O)[C@@H]2C=C3c4cccc5[nH]cc(c45)C[C@H]3N(C)C2)c1 [Example 13, Lysergic-acid-(3'-methyl-mercapto)-anilide bimaleate] | 7.0 °C |  |  |  | 
13 | C=CCOCC(O)CNC(=O)[C@@H]1C=C2c3cccc4[nH]cc(c34)C[C@H]2N(C)C1 (stereo partly shown) [Example 6, Lysergic-acid-(3'-allyloxy-2'-oxy-propyl)-amide bimaleate] | 5.4 °C |  |  |  | LD50 at 24 h ([10]; ip, intraperitoneally): 110 mg/kg; LD50 at 24 h ([10]; po, orally): 205 mg/kg
14 | CN1C[C@H](C(=O)Nc2nccs2)C[C@@H]2c3cccc4c3c(cn4C)C[C@H]21 [Example 9, 1-Methyl-9,10-dihydrolysergic-acid-(thiazol-2'-yl)-amide bimaleate] | 4.7 °C | 1 mg/kg | 500 ng/mL | 0.03 mg/kg | Decrease in blood pressure ([1]; 1.0 mg/kg i.v.): -20 mmHg; Decrease in blood pressure, duration ([1]; 1.0 mg/kg i.v.): 1.5 h
15 | CN1C[C@H](C(=O)Nc2cccc3ncccc23)C=C2c3cccc4[nH]cc(c34)C[C@H]21 [Example 10, Lysergic-acid-(quinolin-5-yl)-amide bimaleate] | 3.9 °C |  |  |  | 
